# pIC50: −log10 of the molar value.
# Key:
# [1] = system: experimental pancreatitis; assay: Effect on experimental pancreatitis (sodium taurochorate + trypsin into the common bile duct), survival ratio; format: in vivo, SD-rats; conditions: 80 μg/kg/min. x 80 min. continuous infusion, rat
# Text: [II] Effect on experimental pancreatitis
# SD-rats, body weight of about 200 g were, starved overnight, and 10 to 24 animals were used in one group. Sodium pentobarbital was intraperioneally administered to anesthetize each rat, and then a cannula was inserted to the femoral vein for the administration of the test substance. After abdominal surgery, the bile duct was blocked at a part thereof proximate to the liver, by a clip, a polyethylene tube was inserted to the common bile duct at a part thereof most proximate to the duodenum, and 0.1 ml of solution containing 2 mg sodium taurochorate and 1000 U trypsin dissolved in physiological saline was injected retrogrodely. After removal of the clip and tube, the common bile duct was ligated and the abdomen was closed. Note, the test substance was dissolved in an injective 5% glucose solution, and in the case of a continuous infusion, the solution was administered over 80 minutes starting from 10 minutes before the generation of pancreatitis. In the case of oral administration, the test substance was administered through an oral catheter 30 minutes before the generation of pancreatitis. After 24 hours and 48 hours from the generation of pancreatitis, the survival ratio of the animals was calculated and compared with a control group.
# in vivo = conditions: mouse, intravenous, ICR male mice, up-and-down method, read-out: Acute toxicity (LD50)
# Procedure: ICR male mice 5 to 10 weeks old were used. The test substance was dissolved in a 5% dimethylsulfoxide aqueous solution, and the solution was intravenously administered in an amount of 0.1 to 0.2 ml/10 g body weight. An LD50 value was calculated by up-and-down method.
# human plasmin [2] = molecular target: T1, human plasmin (Homo sapiens, UniProt P00747); assay: Anti-plasmin activity: inhibition of S-2251 degradation; format: biochemical; conditions: substrate S-2251, 37°C, pH7.4; read-out: Plasmin S-2251 (I50)
# T1 construct: 50 µl of 0.2 casein units/ml of human plasmin
# Procedure: ii) Assay method of inhibition of S-2251 degradation
# The test substance was dissolved in a 0.05 M Tris-HC1 (pH7.4) buffer to make a total volume of 400 µl, and 50 µl of a 3 mM S-2251 solution was added to the solution. The mixture was incubated at 37°C for 5 minutes in an incubator, and after the addition of 50 µl of 0.2 casein units/ml of human plasmin, and incubation at 37°C for 4 minutes, the reaction was terminated by an addition of 50 µl of 50% acetic acid.
# human plasmin [3] = molecular target: T1, human plasmin; assay: Anti-plasmin activity: inhibition of fibrinolysis (fibrin clot lysis time); format: biochemical; conditions: concentration giving a fibrin clot lysis time twice that of control, 37°C, pH7.4; read-out: Plasmin Fibrin (I50)
# human plasma kallikrein = molecular target: T2, human plasma kallikrein (Homo sapiens, UniProt P03952); assay: Anti-plasma kallikrein activity: inhibition of S-2302 degradation; format: biochemical; conditions: substrate S-2302, 37°C, pH 7.8; read-out: Plasma kallikrein S-2302 (I50)
# T2 construct: 50 µl of 0.12 units/ml human plasma kallikrein solution
# Procedure: 2) Assay of anti-plasma kallikrein activity Assay method of inhibition of S-2302 degradation
# (§1) The test substance was dissolved in a 0.05 M Tris-HC1 (pH 7.8) buffer to make a total volume of 400 µl, and 50 µl of a 2 mM S-2302 solution was added to the solution. After incubation at 37°C for 5 minutes in an incubator, an addition of 50 µl of 0.12 units/ml human plasma kallikrein solution, and incubation at 37°C for 5 minutes, the reaction was terminated by an addition of 50 µl of 50% acetic acid.
# human urokinase = human urokinase (Homo sapiens, UniProt P00749); assay: Anti-urokinase activity: inhibition of S-2444 degradation; format: biochemical; conditions: substrate S-2444, 37°C, pH 8.8; read-out: Urokinase S-2444 (I50)
# Procedure: 3) Assay of anti-urokinase activity Assay method of inhibition of S-2444 degradation
# as §1, with “8.8)” for “7.8)”, “1” for “2”, “S-2444” for “S-2302”, “mixture.” for “solution.”, “500” for “0.12”, “urokinase” for “plasma kallikrein”
# experimental DIC = assay: Effect on experimental DIC and MOF (endotoxin-induced); format: in vivo, SD-rats; conditions: Dose 100 μg/kg/min infusion, rat, 4 hours after endotoxin 10 mg/kg; for CPK: Table 5-1
# Procedure: [III] Effect on experimental DIC
# SD-rats, body weight of about 200 g, were starved overnight. Sodium pentobarbital was intraperioneally administered to anesthetize a rat, and then a cannula was inserted to the femoral vein, and the test substance dissolved in an injective 5% glucose solution was continually infused. Then, 10 minutes from the start of the injection, endotoxin (E. coli 0127:B8, Difco, U.S.) dissolved in physiological saline was injected through the tail vein to an amount of 10 mg/kg body weight, and 4 hours from the administration of endotoxin, the abdomen was opened, blood was obtained from the abdominal aorta, and platelets (Plt), fibrinogen (Fbg), fibrin degradation product (FDP), glutamic oxaloacetic transamirase (GOT), creatinine phosphokinase (CPK), and blood urin nitrogen (BUN) were measured.
# bovine factor Xa = molecular target: T3, bovine factor Xa (Bos taurus, UniProt P00743); assay: Anti-FXa activity: inhibition of S-2222 degradation; format: biochemical; conditions: substrate S-2222, 37°C, pH 8.3; read-out: FXa S-2222 (I50)
# T3 construct: 0.05 ml of 0.3 vial/ml bovine factor Xa
# Procedure: 4) Assay of anti-FXa activity Assay method of inhibition of S-2222 degradation
# To 0.4 ml of the test substance dissolved in a 0.05 M Tris-HC1 (pH 8.3) buffer is added 0.05 ml of 3 mM S-2222 solution, and after incubation at 37°C for about 4 minutes, an addition of 0.05 ml of 0.3 vial/ml bovine factor Xa, and a reaction at 37°C for 4 minutes, the - reaction was terminated by adding 0.05 ml of 50% acetic acid.
# experimental shock = assay: Effect on experimental shock (endotoxin-induced), survival ratio; format: in vivo, ICR-mice; conditions: dose of 30 mg/kg intraperitoneally 15 minutes before endotoxin 40 mg/kg, mouse
# Procedure: [IV] Effect on experimental shock
# ICR-mice, body weight of about 25 g, were starved overnight. The test substance was dissolved in an injective 5% glucose solution and intraperioneally administered, and 15 minutes later, endotoxin (E. coli 0127:B8, Difco, U.S.) dissolved in a physiological saline was intraperioneally administered to an amount of 40 mg/kg body weight.
# T1 sequence (P00747 581-810 limits assumed): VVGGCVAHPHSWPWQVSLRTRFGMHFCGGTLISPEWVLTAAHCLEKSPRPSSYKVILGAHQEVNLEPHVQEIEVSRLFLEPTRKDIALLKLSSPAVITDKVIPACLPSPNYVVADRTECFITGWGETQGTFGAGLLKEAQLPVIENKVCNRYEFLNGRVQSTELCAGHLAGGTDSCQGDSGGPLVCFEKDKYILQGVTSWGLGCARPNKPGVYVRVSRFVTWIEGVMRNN
# T1 sequence (P00747 97-580 partner limits assumed): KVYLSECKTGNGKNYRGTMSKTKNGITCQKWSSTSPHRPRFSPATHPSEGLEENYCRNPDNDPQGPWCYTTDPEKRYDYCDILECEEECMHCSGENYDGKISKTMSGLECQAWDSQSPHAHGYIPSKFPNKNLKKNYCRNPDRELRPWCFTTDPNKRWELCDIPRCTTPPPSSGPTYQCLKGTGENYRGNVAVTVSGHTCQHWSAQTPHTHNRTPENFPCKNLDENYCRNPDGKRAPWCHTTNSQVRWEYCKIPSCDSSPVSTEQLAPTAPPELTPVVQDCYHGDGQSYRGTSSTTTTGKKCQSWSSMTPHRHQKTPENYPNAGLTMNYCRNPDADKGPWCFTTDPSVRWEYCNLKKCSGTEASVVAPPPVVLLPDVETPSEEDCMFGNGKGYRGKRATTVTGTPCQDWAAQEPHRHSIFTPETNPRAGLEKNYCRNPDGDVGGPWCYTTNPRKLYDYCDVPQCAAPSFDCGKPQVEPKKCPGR
# T3 sequence (P00743 234-492 limits assumed): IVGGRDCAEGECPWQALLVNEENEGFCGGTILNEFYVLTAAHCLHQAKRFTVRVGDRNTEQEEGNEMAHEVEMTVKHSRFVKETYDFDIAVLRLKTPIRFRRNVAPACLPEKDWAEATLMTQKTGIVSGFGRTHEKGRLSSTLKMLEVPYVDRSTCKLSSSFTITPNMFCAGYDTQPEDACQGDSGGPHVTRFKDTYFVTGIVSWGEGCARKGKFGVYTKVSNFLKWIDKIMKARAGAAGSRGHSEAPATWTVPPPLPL
# T3 sequence (P00743 41-180 partner limits assumed): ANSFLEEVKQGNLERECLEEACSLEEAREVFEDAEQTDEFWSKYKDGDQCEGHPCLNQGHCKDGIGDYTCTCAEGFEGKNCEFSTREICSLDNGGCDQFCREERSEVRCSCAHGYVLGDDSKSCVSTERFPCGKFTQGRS
# T2 sequence (P03952 391-638 limits assumed): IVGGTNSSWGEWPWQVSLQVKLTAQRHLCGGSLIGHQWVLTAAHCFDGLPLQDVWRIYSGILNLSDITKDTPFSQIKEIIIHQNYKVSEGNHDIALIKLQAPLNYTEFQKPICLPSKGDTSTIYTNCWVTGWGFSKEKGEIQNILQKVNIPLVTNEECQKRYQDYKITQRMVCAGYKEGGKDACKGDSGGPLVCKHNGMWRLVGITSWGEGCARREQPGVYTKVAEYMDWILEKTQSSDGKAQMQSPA
# T2 sequence (P03952 20-390 partner limits assumed): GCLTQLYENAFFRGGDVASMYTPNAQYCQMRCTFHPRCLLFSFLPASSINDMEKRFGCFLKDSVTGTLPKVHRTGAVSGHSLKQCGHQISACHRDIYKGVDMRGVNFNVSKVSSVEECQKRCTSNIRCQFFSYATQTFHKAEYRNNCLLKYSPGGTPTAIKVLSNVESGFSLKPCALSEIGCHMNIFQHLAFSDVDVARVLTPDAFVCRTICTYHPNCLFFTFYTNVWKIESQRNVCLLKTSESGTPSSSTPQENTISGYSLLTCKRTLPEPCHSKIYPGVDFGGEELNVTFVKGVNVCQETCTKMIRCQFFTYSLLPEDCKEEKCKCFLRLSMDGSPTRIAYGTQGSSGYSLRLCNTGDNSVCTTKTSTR
SMILES,Effect on experimental pancreatitis Survival ratio(%) After 24 hours [1],Effect on experimental pancreatitis Survival ratio(%) After 48 hours [1],LD50 (in vivo),pIC50 (human plasmin [2]),pIC50 (human plasmin [3]),pIC50 (human plasma kallikrein),pIC50 (human urokinase),BUN (experimental DIC),FDP (experimental DIC),Fbg (experimental DIC),GOT (experimental DIC),Plat (experimental DIC),CPK (experimental DIC),pIC50 (bovine factor Xa),Effect on experimental shock (Survival ratio (%) after 24 hours) (experimental shock)
CCOC(=O)CCc1ccc(NC(=O)C(Cc2ccc(OCc3ccccc3)cc2)NC(=O)C2CCC(CN)CC2)cc1 (centres unmarked) [Compound 21],45.5%,36.4%,100 mg/kg,–,–,–,–,–,–,–,–,–,–,–,–
NC[C@H]1CC[C@H](C(=O)N[C@@H](Cc2ccc(OCc3ccccc3)cc2)C(=O)Nc2ccc(CCC(=O)O)cc2)CC1 [Compound 16],58.3%,58.3%,> 100 mg/kg,4.92,5.05,5.74,3.68,–,–,–,–,–,–,–,–
CC(=O)c1ccc(NC(=O)[C@H](Cc2ccc(OCc3ccccn3)cc2)NC(=O)c2ccc(CN)cc2)cc1 [Compound 19],50.0%,33.3%,–,5.38,5.60,4.92,–,30 ± 4 mg/dL,16 to 32 µg/mL,147 ± 16 mg/dL,219 ± 39 U/ml,80 ± 11 x 10^4/μl,19 ± 2 U/1,–,–
NC[C@H]1CC[C@H](C(=O)NC(Cc2cccc(Oc3ccccc3)c2)C(=O)Nc2cccnc2)CC1 (mixture of isomers) [Compound 14],58.3%,41.7%,50 mg/kg,4.01,4.15,5.70,3.60,–,–,–,–,–,–,–,–
CC(=O)c1ccc(NC(=O)[C@H](Cc2ccccc2)NC(=O)[C@H]2CC[C@H](CN)CC2)cc1 [Compound 2],–,–,50 mg/kg,4.44,4.68,6.07,4.24,–,–,–,–,–,–,3.27,50%
NCC1CCC(C(=O)NC(Cc2ccccc2)C(=O)Nc2ccc(CC(=O)O)cc2)CC1 (centres unmarked) [Compound 17],–,–,–,3.12,3.34,5.74,3.21,34 ± 11 mg/dL,16 to 64 µg/mL,143 ± 23 mg/dL,146 ± 21 U/ml,63 ± 2 x 10^4/μl,22 ± 6 U/1,< 3.00,–
CC(=O)c1ccc(NC(=O)[C@@H](Cc2ccc(OCc3ccccn3)cc2)NC(=O)C2CCC(CN)CC2)cc1 (some centres unmarked) [Compound 24],–,–,–,4.11,3.62,< 3.00,< 3.00,–,–,–,–,–,–,–,–
NC[C@H]1CC[C@H](C(=O)NC(Cc2cccc(Oc3ccccc3)c2)C(=O)Nc2ccnc(Cl)c2)CC1 (mixture of isomers) [Compound 11],42.0%,26.7%,> 100 mg/kg,4.51,5.00,6.37,3.72,–,–,–,–,–,–,–,84%
NCC1CCC(C(=O)N[C@H](Cc2ccc([N+](=O)[O-])cc2)C(=O)Nc2ccc(C(=O)c3ccccc3)cc2)CC1 (some centres unmarked) [Compound 25],–,–,–,3.62,4.24,< 3.60,3.77,–,–,–,–,–,–,–,70%
NC[C@H]1CC[C@H](C(=O)NC(Cc2cccc(Oc3ccccc3)c2)C(=O)Nc2ccncc2)CC1 (mixture of isomers) [Compound 13],–,–,85 mg/kg,–,–,–,–,–,–,–,–,–,–,< 3.70,79%
NCC1CCC(C(=O)NC(Cc2ccccc2)C(=O)Nc2ccc(C(=O)O)cc2)CC1 (centres unmarked) [Compound 22],–,–,> 100 mg/kg,< 3.00,3.25,5.57,< 3.00,30 ± 3 mg/dL,32 to 64 µg/mL,107 ± 18 mg/dL,195 ± 35 U/ml,62 ± 12 x 10^4/μl,14 ± 3 U/1,< 3.40,–
CC(=O)c1ccc(NC(=O)[C@H](Cc2cccc(Oc3ccccc3)c2)NC(=O)[C@H]2CC[C@H](CN)CC2)cc1 [Compound 7],–,–,60 mg/kg,–,–,–,–,–,–,–,–,–,–,< 3.70,90%
NCC1CCC(C(=O)NC(Cc2ccc(OCc3ccccc3)cc2)C(=O)Nc2ccncc2)CC1 (centres unmarked) [Compound 23],–,–,60 mg/kg,3.92,3.85,3.44,< 3.00,–,–,–,–,–,–,–,51%
NC[C@H]1CC[C@H](C(=O)N[C@@H](Cc2ccc(OCc3ccccc3)cc2)C(=O)Nc2ccncn2)CC1 [Compound 15],50.0%,25.0%,> 100 mg/kg,4.82,5.17,5.29,3.96,–,–,–,–,–,–,–,–
NC[C@H]1CC[C@H](C(=O)N[C@@H](Cc2ccc(OCc3ccccc3)cc2)C(=O)Nc2ccncc2)CC1 [Compound 4],–,–,85 mg/kg,5.47,6.15,5.92,4.49,–,–,–,–,–,–,4.05,82%

# From patent publication EP0369035A1, “AGENT FOR TREATING PANCREATITIS OR THE LIKE” (priority 1988, dated 1989)
